Test results reported in patent US7632957B2, “Esterification reaction products and cosmetic products” (The Nisshin Oillio Group, Ltd., priority 2005, dated 2009).

Key:
Format in all cases: physicochemical
[1] = Solubility of 4-tert-butyl-4′-methoxydibenzoylmethane when mixed with esterification reaction product; settings: mixed with esterification reaction product (Production Example 1)
[2] = Dispersibility test (titanium oxide, octyl palmitate; wetting point and fluid point); settings: sample 4 g + titanium oxide 20 g, octyl palmitate added; for (4) Dispersibility Wetting point: lower is better
Protocol: A sample (4 g) and titanium oxide (20 g) are mixed, and then octyl palmitate (manufactured by The Nisshin OilliO Group, Ltd. under the trade name Salacos P-8) is gradually added thereto. The point when the mixture become uniform as a whole is determined as the wetting point, and the point when the mixture starts to flow by tilting the whole mixture is determined as the fluid point. The amounts of octyl palmitate added until to reach the respective points are measured and used as the wetting point value and the fluid point value.
A lower wetting point value or a smaller difference between the wetting point value and the fluid point value means higher pigment-dispersing properties of the sample.

[3] = Water-holding property test 1 (water taken up by sample/Vaseline mixture at 40° C.); settings: sample 1 g + Vaseline 9 g, mass of water to mass of mixture, higher is better
Protocol: (1) Water-Holding Property Test 1
The water-holding property test of esterification reaction products is conducted with reference to the lanolin water retention value test in British Pharmacopoeia (BP) as follows:
A measurement sample (1 g) and Vaseline (9 g) are mixed and vigorously stirred (200 to 300 rpm) in a thermostat chamber at 40° C. while dropwise adding purified water thereto. The point when water is no longer being received is determined as the end-point and is expressed as a percentage of mass of water to mass of the mixture. A higher value means better water-holding properties of the sample.

[4] = Water-holding property test 2 (differential scanning calorimetry of sample:water 7:3); settings: sample:water 7:3, DSC 2° C./min from −15° C. to 45° C.; no peak = good water-holding
Protocol: (2) Water-Holding Property Test 2
A measurement sample and water are mixed at a mass ratio of 7:3 and are vigorously stirred (500 rpm, 3 minutes) in a thermostatic chamber at 70° C. to obtain a water-holding substance. The obtained water-holding substance is analyzed with a differential scanning calorimeter (device name “DSC 6200”, manufactured by Seiko Instruments Inc.). That is, the temperature of the water-holding substance is raised at a rate of 2° C./min in the range from −15° C. to 45° C. to obtain a differential scanning calorimetry curve, and the curve is confirmed whether an endothermic peak due to water at around 0° C. is present or not. When this endothermic peak is not observed, the water-holding properties are judged to be good.

[5] = Water-retaining property test (mass loss after 24 hours at 40° C.); settings: reduced mass after 24 hours at 40° C., lid off; lower is better
Protocol: (3) Water-Retaining Property Test
A measurement sample (1 g) and Vaseline (9 g) are mixed and vigorously stirred (500 rpm, 3 minutes) in a thermostat chamber at 40° C. while dropwise adding 10 g of purified water thereto (the ratio of purified water to the mixture of sample and Vaseline was 1:1). When the sample become smooth, 10 g of the sample is uniformly applied onto a Petri dish so as to have a thickness of 0.5 to 1.5 mm and then put in a thermostat chamber at 40° C. with the lid off. After 24 hours, the sample is taken out from the chamber. The mass after the still standing is measured, and the reduced mass after the standing is calculated and is expressed as a percentage to the mass of the applied sample. A lower value means better water-retaining properties of the sample.

[6] = Water resistant ability (waterproof-film-forming ability), contact angle before and after washing; settings: film on glass plate, before and after washing with flowing tap water 25 mL/s, 1 minute; smaller is better
Protocol: (6) Water Resistant Ability (Waterproof-Film-Forming Ability)
A sample is dissolved in chloroform to prepare a sample solution containing 10% by mass of the sample. The prepared sample solution is applied onto a washed glass plate. Then, the solvent is removed to form a film, and one drop of distilled water is dropped onto the formed film. The contact angle between the film surface and the water droplet is measured. After the measurement, the film is washed with flowing tap water (25 mL/s, 1 minute). The water resistant ability is evaluated by comparing the contact angles before and after the washing. A smaller difference in the contact angle before and after the washing means better water resistant ability.

Compound	solubility of 4-tert-butyl-4′-methoxydibenzoylmethane [1]	(4) Dispersibility Fluid point [2] [% by mass]	(4) Dispersibility Wetting point [2] [% by mass]	(1) Water-holding properties [3] [% by mass]	endothermic peak due to water at around 0° C. [4]	(3) Water-retaining properties [5] [% by mass]	Water resistant ability (difference in contact angle (°)) [6] [°]
COc1ccc(C(=O)CC(=O)c2ccc(C(C)(C)C)cc2)cc1 [4-tert-butyl-4′-methoxydibenzoylmethane]	improved	–	–	–	–	–	–
CCCCCCC(O)CCCCCCCCCCC(=O)O[C@H]1CC[C@@]2(C)C(=CC[C@H]3[C@@H]4CC[C@H]([C@H](C)CCCC(C)C)[C@@]4(C)CC[C@@H]32)C1 (stereo partly shown) [Cholesteryl hydroxystearate, cholesteryl hydroxystearate]	–	9	2	320	detected	1.9	–
CC(C)CCCCCCCCCCCCCCCOC(=O)CC(O)C(=O)OCCCCCCCCCCCCCCCC(C)C (stereo not shown) [Diisostearyl malate, diisostearyl malate]	–	22	3	200	detected	3.0	47.4
polyglyceryl triisostearate	–	–	–	–	–	–	21.0
